Earlier results, collected in patent US20070275062A1, “Controlled release oxycodone compositions” (priority 1993, published 2007).
Read-outs that look alike come from different tables or passages of the source.

Tested on: pain
Details: for dose-response slopes: Beaver, et al.

## COc1ccc2c3c1O[C@H]1C(=O)CC[C@@]4(O)[C@@H](C2)N(C)CC[C@]314 [oxycodone]
In comparison with other oral and parenteral opioids
  parallelism of the dose-response curves: no substantial deviation from parallelism
Oral as compared to parenteral oxycodone
  dose-response slopes: comparable dose-response slopes
Parenteral oxycodone as compared to parenteral morphine
  dose-response slopes: comparable dose-response slopes
